{"source": "patent US12303891B2", "about": "“Emulating vascular cellular physiologies” (CALIFORNIA NORTHSTATE COLLEGE OF PHARMACY, LLC, priority 2021, dated 2025)", "key": {"PAH patients [1]": {"test_system": "PAH patients", "assay": "Responsiveness of female and male PAH patients to anti-PAH drugs", "format": "in vivo, human", "settings": "for responsiveness of female PAH patients: 'we have found'"}, "[2]": {"test_system": "PAH-ECs/SMCs/ADCs of male and female patients", "assay": "PAH chip, sex-specific therapeutic response to bosentan", "format": "cell-based, human", "procedure": "As reported in our recent publication, we first characterized the cells for various markers and seeded control and PAH cells on the respective channels of the chips at a density of 2×10^6 cells/mL of adventitial cells (ADCs) or SMCs and 5˜10×10^6 cells/mL of ECs. SMCs were seeded in rat tail type I collagen solution (Corning Inc., NY). We fed the cells with the media via the two outermost channels. In experiment when chips were seeded with three different cell types, we first instilled collagen (2 mg/mL) alone or SMC mixed with collagen into the medial channel and allowed 20 minutes for collagen to form gel and then seeded ECs and ADCs 20 minutes apart. The cell-laden chips thus prepared were placed in a humidified chamber and let them grow in a CO2 incubator for 5-8 days. Each day, the medium was removed and replaced with 150 μL fresh media.\n(§1) Into chips prepared by seeding PAH-ECs/SMCs/ADCs of male and female patients, we infused 50 µM bosentan starting from day 4 of cell seeding and continued the infusion for an additional 3 days. To determine whether the drug had any preventive effects, we treated the cell-laden chips with 50 µM bosentan on day 1 of seeding and let the cells grow for 6 more days with no treatment. For studying the influence of growth hormones and anti-PAH drug on cellular functions and remodeling, we seeded male and female PAH-ECs, QD705-labeled or unlabeled PAH-SMCs and PAH-ADCs. We assessed the deposition of human ColT1, expression of aromatase (an enzyme that synthesizes estrogen) and CYP1B1 (an estrogen-metabolizing enzyme) and then measured arterial remodeling and muscularization.\nFor assessing the effect of the drug pulmonary arterial thickening, we assumed that ECs and SMCs grow in their respective channels, the intimal and medial layers of the chip, not outside their assigned layers. If ECs or SMCs grow outside their original seeding channels, we considered out-of-designated channel growth as intimal or medial layer thickening, respectively. We also considered the migration of SMCs from the medial to intimal as muscularization and that the number of SMCs that grow in the intimal layers is the degree of muscularization. These assumptions were based on PAH pathology whereby non-muscularized distal arteries/arterioles become muscularized and show SM-like cells from preexisting SMCs. We used phase contrast microscopy, immunostaining, and quantum dot labeling to draw line between the growth zones of different cells and for counting and identifying cells.\nFor demarcating boundaries of different cell growth areas, we first imaged the chips using a phase-contrast microscope and then stained the cells for imaging using a confocal microscope. For calculating the extent of intimal and medial thickening, we calculated the average of the lengths of five to seven diametrically uneven points of the same layer. To determine the degree of muscularization, we grew QD-labeled N-SMC/PAH-SMCs on the chip and stained the chips for FSP-1 and CD31 antibodies and counted the number of FSP-1+CD31− or QD-labeled SMCs in all three layers of the chip."}, "CMs and PAH-ECs": {"test_system": "CMs and PAH-ECs", "assay": "PAH-RVH chip prepared with CMs and PAH-ECs, efficacy of anti-PAH drugs", "format": "cell-based, human", "settings": "chips prepared with CMs and PAH-ECs", "from_the_text": "The modified chip device can be used, for example, for growing both cardiomyocytes (CMs) in the study of cardiovascular disease, and pulmonary arterial endothelial cells (ECs) in the study of pulmonary vascular diseases. The pulmonary arterial ECs, for example, can be collected from the pulmonary arteries of healthy donors (N-ECs) and that of PAH patients (PAH-ECs). We have seen that PAH is an example of a disease that can benefit from improved treatments developed with the systems and methods taught herein. Through the growing of CMs and either N-ECs or PAH-ECs in respective compartments or channels, for example, we can measure the influence PAH-ECs on CMs by measuring various soluble cellular markers, assessing the contractility of CMs, evaluating the expression of genes by CMs, and study the influence of anti-PAH PAH drugs on the release of hypertrophy inducing agents and hypertrophic markers and CM contractility.\nWe developed a drug therapy using the systems and methods. We used two anti-PAH drugs, sildenafil and bosentan, on chips prepared with CMs and PAH-ECs, the drug reduced the extent of CM hypertrophy, improved the contractility, and reduced both hypertrophy-inducing agents and hypertrophic markers. From our study, one of skill will understand that the systems and methods can identify the interactions between PAH-afflicted ECs and CMs and assess the efficacy of anti-PAH drugs in ameliorating pulmonary arterial hypertension right ventricular hypertrophy (PAH-RVH)."}, "PAH patients [3]": {"test_system": "PAH patients", "settings": "female vs male PAH patients (p=0.3); cited from earlier work"}, "[4]": {"test_system": "PACs of female patients and male patients", "assay": "Chips with PACs of female and male PAH patients treated with estrogen and growth factor", "format": "cell-based, human", "procedure": "as §1\nFor assessing the effect of the drug pulmonary arterial thickening, we assumed that ECs and SMCs grow in their respective channels, the intimal and medial layers of the chip, not outside their assigned layers. If ECs or SMCs grow outside their original seeding channels, we considered out-of-designated channel growth as intimal or medial layer thickening, respectively. We also considered the migration of SMCs from the medial to intimal as muscularization and that the number of SMCs that grow in the intimal layers is the degree of muscularization. […]"}, "[5]": {"settings": "bosentan-treated female vs male chips"}, "[6]": {"settings": "early treatment, female chips compared with male counterparts"}, "[7]": {"settings": "female chips, 50 µM bosentan infused from day 4 for 3 days"}, "[8]": {"settings": "preventive: treated on day one after seeding, then 6 days without treatment, female vs male chips"}}, "note": "“Also recorded” adds a separate entry of the source."}
{"compound": "CCCCC[C@H](O)CC[C@@H]1[C@H]2Cc3cccc(OCC(=O)O)c3C[C@H]2C[C@H]1O", "note": "[treprostinil]", "values": [{"measurement": "responsiveness of female PAH patients", "setting": "PAH patients [1]", "value": "more responsive"}]}
{"compound": "CCCCC[C@H](O)/C=C/[C@@H]1[C@H]2C/C(=C/CCCC(=O)O)O[C@H]2C[C@H]1O", "note": "[epoprostenol]", "values": [{"measurement": "responsiveness of female PAH patients", "setting": "PAH patients [1]", "value": "more responsive"}]}
{"compound": "CCCNS(=O)(=O)Nc1ncnc(OCCOc2ncc(Br)cn2)c1-c1ccc(Br)cc1", "note": "[macitentan]", "values": [{"measurement": "responsiveness of female PAH patients", "setting": "PAH patients [1]", "value": "more responsive"}]}
{"compound": "COc1ccccc1Oc1c(NS(=O)(=O)c2ccc(C(C)(C)C)cc2)nc(-c2ncccn2)nc1OCCO", "note": "[bosentan]", "values": [{"measurement": "ColT1a deposition, compartment-specific analysis", "setting": "[2]; [5]", "value": "lower in bosentan-treated female chips than in the male chips"}, {"measurement": "laminin deposition, compartment-specific analysis", "setting": "[2]; [5]", "value": "lower in bosentan-treated female chips than in the male chips"}, {"measurement": "responsiveness of female chips compared with male chips", "setting": "[2]; chips with cells from female vs male PAH patients, 50 µM bosentan", "value": "more responsive"}, {"measurement": "intimal deposition of ColT1a", "setting": "[2]; [6]", "value": "decreases"}, {"measurement": "intimal deposition of laminin", "setting": "[2]; [6]", "value": "decreases"}, {"measurement": "CYP1B1 expression in the medial layer", "setting": "[2]; [7]", "value": "lowered"}, {"measurement": "migration of PAH-SMCs toward the luminal and intimal layers", "setting": "[2]; [7]", "value": "slowed"}, {"measurement": "thickening of the medial layer", "setting": "[2]; [7]", "value": "reduced"}, {"measurement": "level of muscularization", "setting": "[2]; female vs male chips, counting QD705+ PAH-SMCs in intimal layers", "value": "lower level of muscularization"}, {"measurement": "expression of CYP1B1", "setting": "[2]; [8]", "value": "declined more in the medial layer of the female chips than in the male chips"}, {"measurement": "presence of PAH-SMCs in the endothelial layer", "setting": "[2]; [8]", "value": "lower in the female chips than in the male chips"}, {"measurement": "contractility of CMs", "setting": "CMs and PAH-ECs", "value": "improved"}, {"measurement": "extent of CM hypertrophy", "setting": "CMs and PAH-ECs", "value": "reduced"}, {"measurement": "hypertrophic markers", "setting": "CMs and PAH-ECs", "value": "reduced"}, {"measurement": "hypertrophy-inducing agents", "setting": "CMs and PAH-ECs", "value": "reduced"}, {"measurement": "responsiveness of female PAH patients", "setting": "PAH patients [1]", "value": "more responsive"}, {"measurement": "responsiveness of female PAH patients compared with male patients, clinical data", "setting": "PAH patients [3]", "value": "more responsive; also recorded: responsive"}]}
{"compound": "CC(C)N(CCCCOCC(=O)NS(C)(=O)=O)c1cnc(-c2ccccc2)c(-c2ccccc2)n1", "note": "[selexipag]", "values": [{"measurement": "responsiveness of female PAH patients", "setting": "PAH patients [1]", "value": "more responsive"}]}
{"compound": "Estrogen", "values": [{"measurement": "responsiveness of female chips compared with male chips", "setting": "[4]; chips with PACs from female vs male PAH patients", "value": "more responsive"}, {"measurement": "arterial remodeling", "setting": "[4]; chips with PACs of female patients vs male patients", "value": "more extensive arterial remodeling"}]}
{"compound": "CCCc1nn(C)c2c(=O)[nH]c(-c3cc(S(=O)(=O)N4CCN(C)CC4)ccc3OCC)nc12", "note": "[sildenafil]", "values": [{"measurement": "contractility of CMs", "setting": "CMs and PAH-ECs", "value": "improved"}, {"measurement": "extent of CM hypertrophy", "setting": "CMs and PAH-ECs", "value": "reduced"}, {"measurement": "hypertrophic markers", "setting": "CMs and PAH-ECs", "value": "reduced"}, {"measurement": "hypertrophy-inducing agents", "setting": "CMs and PAH-ECs", "value": "reduced"}, {"measurement": "responsiveness of male PAH patients", "setting": "PAH patients [1]; male PAH patients, 'we have also found'", "value": "more responsive"}]}
